{"source": "paper PMC8706149", "about": "(International Journal of Molecular Sciences, 2021)", "key": {"[1]": {"assay": "Photostability under constant excitation", "assay_type": "physicochemical", "details": "60 min constant excitation at maximum absorption (Figure S3)", "from_the_text": "As comparative control, we used the very photostable fluorophore PyMPO [33] by treating PyMPO-(C)GKY20 in the same conditions."}, "[2]": {"details": "cited from earlier work; for pKa of the phenolic group of luciferin: ground state", "from_the_text": "Excited states are indicated by an asterisk. (C) Condensation reaction between 6-substituted 2-cyanobenzothiazoles and cysteine (free or as N-terminal residue of a peptide). R1 and R2 can be a wide variety of alkyl and acyl groups."}, "[3]": {"tested_on": "Escherichia coli ATCC 25922", "assay_type": "cell-based", "details": "positive control antibiotic; Nutrient Broth 0.5x, overnight 37°C", "description": "(§1) All the labeled peptide after purification were lyophilized and dissolved in water. Purity was veri-fi e d by RP-HPLC on C18 column . Pepti de i dentity was assessed by mass spectrometry anal yses (Supplementary Methods, section S4; Table S1).\n(§2) S6. Antimicrobial activity assay\n(§3) MIC (Minimum Inhibitory Concentration) analyses were performed by broth microdilution method for antimicrobial peptides previously described wi th mi nor modi ficati ons. In detai l s, assays were carried out in Nutrient Broth 0.5x (Difco, Detroit, MI, US A ) usi ng st e r i le 96-well polypropylene mi-croti ter pl ates (cat. 3879, C ostar C orp., C ambri dge, MA , US A ). Bacterial strains were grown in Luria-Bertani (LB) medium overnight at 37°C and then diluted in Nutrient Broth at a final concentration of ~5x10^5 CFU/mL per well. Twofold serial dilutions of peptides were carried out in the test wells […]\n(§4) Plates were incubated overnight at 37°C. MIC value was taken as the lowest concentration at which growth was inhibited. Three independent experiments we r e performed for each MIC value. […] MIC values were measured on Gram-negative ( E scherichia coli ATCC 25922) and Gram-po si t i ve st r ains (Sta phyl o co ccus a ure us ATCC 6538P and Bacillus globigii TNO BMO13) . […]"}, "[4]": {"tested_on": "Bacillus globigii TNO BMO13", "assay": "MIC, broth microdilution", "assay_type": "cell-based", "details": "Bacillus subtilis, TNOBMO13, read-out: MIC (µg/mL) Bacillus globigii TNO BMO13", "description": "as §1, §2, §3, §4"}}, "note": "Where two headings read alike, the source gives them in different places. Marks after values point to notes of the source that are not given here. Bridge positions count the residues as written; N and C are the ends. Square brackets hold non-standard residues; d marks the D form. Peptide text beside a SMILES is read from it. * marks the point of attachment. X1 = CC[C@H](C)CCCCC(=O)*; Dab = NCC[C@H](N)C(=O)O", "data": [{"molecule": "1-[2-(maleimido)ethyl]-4-[5-(4-methoxyphenyl)-2-oxazolyl]pyridinium-labeled GKY20 [PyMPO-(C)GKY20]", "values": [{"measurement": "loss of initial fluorescence", "setting": "[1]", "value": 43, "unit": "%"}]}, {"molecule": "O=C(O)[C@H]1CSC(c2nc3ccc(O)cc3s2)=N1", "note": "[Free Luc, luciferin]", "values": [{"measurement": "pKa of the phenolic group of luciferin", "setting": "[2]", "value": "8.70 ^b"}, {"measurement": "pKa of the phenolic group of luciferin", "setting": "[2]; listed as LUC-OH", "value": 8.7}, {"measurement": "pKa of the phenolic group of luciferin", "setting": "[2]; listed as Luc", "value": "≈ 8.7"}, {"measurement": "pKa of light-induced dissociation (excited state) of luciferin", "setting": "[2]; photoacid, excited state", "value": "< 1"}]}, {"molecule": "CC[C@H](C)CCCCC(=O)N[C@@H](CCN)C(=O)N[C@H](C(=O)N[C@@H](CCN)C(=O)N[C@H]1CCNC(=O)[C@H]([C@@H](C)O)NC(=O)[C@H](CCN)NC(=O)[C@H](CCN)NC(=O)[C@H](CC(C)C)NC(=O)[C@@H](Cc2ccccc2)NC(=O)[C@H](CCN)NC1=O)[C@@H](C)O", "note": "[Polymyxin B, polymyxin B] (X1-[Dab]T[Dab][Dab][Dab][dF]L[Dab][Dab]T; lactam 4-C (inferred); N-terminus assumed)", "values": [{"measurement": "MIC (µg/mL) Escherichia coli 25922 ATCC", "setting": "[3]", "value": 0.5, "unit": "µg/mL"}]}, {"molecule": "CN[C@H](CC(C)C)C(=O)N[C@H]1C(=O)N[C@@H](CC(N)=O)C(=O)N[C@H]2C(=O)N[C@H]3C(=O)N[C@H](C(=O)N[C@H](C(=O)O)c4cc(O)cc(O)c4-c4cc3ccc4O)[C@H](O)c3ccc(c(Cl)c3)Oc3cc2cc(c3O[C@@H]2O[C@H](CO)[C@@H](O)[C@H](O)[C@H]2O[C@H]2C[C@](C)(N)[C@H](O)[C@H](C)O2)Oc2ccc(cc2Cl)[C@H]1O", "note": "[Vancomycin, vancomycin]", "values": [{"measurement": "MIC", "setting": "[4]", "value": 2, "unit": "µg/mL"}]}]}
